SMILES strings stand for the structures. Where “and” joins values, the source holds several entries; their conditions need not be identical. Identical values can stand only once. Toxic doses and inconclusive results are not listed.

This assay concerns L1210 leukemia ip in BDF1 mice, survival T/C. As to the kind of experiment: NCI In Vivo Anticancer Drug Screen. Data for tumor model L1210 Leukemia (intraperitoneal) in B6D2F1 (BDF1) mice. The settings on record: endpoint: mean survival time, higher = longer survival. Put shortly: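 Ratio derived from survival: compound-dosed mice over vehicle-dosed mice, all bearing a transplantable tumor.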

[1] abbreviates: dose: 12.5 mg/kg/injection, schedule: Q04DX003 (ip), vehicle: Klucel (hydroxypropylcellulose) (HPC).
The mark [2] stands for this setting: dose: 25.0 mg/kg/injection, schedule: Q04DX003 (ip), vehicle: Klucel (hydroxypropylcellulose) (HPC).
[3] abbreviates: dose: 100.0 mg/kg/injection, schedule: Q04DX003 (ip), vehicle: acetone.
Setting [4] is: dose: 200.0 mg/kg/injection, schedule: Q04DX003 (ip), vehicle: acetone.
[5] abbreviates: dose: 400.0 mg/kg/injection, schedule: Q04DX003 (ip), vehicle: acetone.
[6] abbreviates: dose: 100.0 mg/kg/injection, schedule: Q01DX001 (ip), vehicle: carboxymethylcellulose (CMC).
[7] abbreviates: dose: 200.0 mg/kg/injection, schedule: Q01DX001 (ip), vehicle: carboxymethylcellulose (CMC).
Setting [8] is: dose: 100.0 mg/kg/injection, schedule: Q01DX009 (ip), vehicle: Klucel (hydroxypropylcellulose) (HPC).
Setting [9] is: dose: 200.0 mg/kg/injection, schedule: Q01DX009 (ip), vehicle: Klucel (hydroxypropylcellulose) (HPC).
Where [10] appears, read: dose: 400.0 mg/kg/injection, schedule: Q01DX009 (ip), vehicle: Klucel (hydroxypropylcellulose) (HPC).

For the compound `Cc1ccc2c(n1)Nc1ncnc(N)c1S2`, the T/C by setting is: under setting [1], 96 % of control; under setting [2], 108 % of control.
In the case of `c1cc(C[N+]23CN4CN(CN(C4)C2)C3)cs1`, the T/C (dose: 25.0 mg/kg/injection, schedule: Q04DX003 (ip), vehicle: saline) was 93 % of control and the T/C (dose: 50.0 mg/kg/injection, schedule: Q04DX003 (ip), vehicle: saline) is 95 % of control.
Take `Cc1ccc(C)c(C(=O)CCCCl)c1`: the T/C (dose: 100.0 mg/kg/injection, schedule: Q04DX003 (ip), vehicle: saline with Tween-80) was 98 % of control.
On to `CCCCOC(=O)C(N)Cc1ccc(OC)c(N(CCCl)CCCl)c1` (stereo not drawn), for which the T/C was 93 % of control (dose: 0.6 mg/kg/injection, schedule: Q01DX009 (ip), vehicle: saline); 108 % of control (dose: 0.75 mg/kg/injection, schedule: Q01DX001 (ip), vehicle: saline); 191 % of control (dose: 1.3 mg/kg/injection, schedule: Q01DX009 (ip), vehicle: saline); 118 % of control (dose: 1.5 mg/kg/injection, schedule: Q01DX001 (ip), vehicle: saline); 162 % of control (dose: 2.0 mg/kg/injection, schedule: Q01DX009 (ip), vehicle: saline); 109 % of control (dose: 2.6 mg/kg/injection, schedule: Q01DX001 (ip), vehicle: saline). Further, the T/C reads like this: (dose: 3.0 mg/kg/injection, schedule: Q01DX009 (ip), vehicle: saline) 107 % of control; (dose: 6.0 mg/kg/injection, schedule: Q01DX001 (ip), vehicle: saline) 118 % of control; (dose: 12.0 mg/kg/injection, schedule: Q01DX001 (ip), vehicle: saline) 120 % of control.
`O=C1CNc2ccc(Cl)cc2N1`: the T/C by setting is: under setting [3], 92 % of control; under setting [4], 95 % of control; under setting [5], 88 % of control.
With `CCOC(=O)c1ccc(NCc2nc3nc(N)nc(N)c3[nH]2)cc1`, the T/C is, setting by setting: (dose: 75.0 mg/kg/injection, schedule: Q01DX001 (ip), vehicle: other) 102 % of control; (dose: 150.0 mg/kg/injection, schedule: Q01DX001 (ip), vehicle: other) 97 % of control; (dose: 300.0 mg/kg/injection, schedule: Q01DX001 (ip), vehicle: other) 97 % of control.
Take `Nc1cccc(C(=O)Nc2cccc(S(=O)(=O)F)c2)c1`: the T/C (dose: 100.0 mg/kg/injection, schedule: Q01DX001 (ip), vehicle: saline) was 95 % of control; the T/C (dose: 200.0 mg/kg/injection, schedule: Q01DX001 (ip), vehicle: saline) was 98 % of control; the T/C (dose: 400.0 mg/kg/injection, schedule: Q01DX001 (ip), vehicle: saline) is 104 % of control.
Consider `O=C1NC2CCC(NC(=O)N1c1ccccc1)C1=C2C1`, for which the T/C reads like this: (dose: 3.13 mg/kg/injection, schedule: Q01DX009 (ip), vehicle: saline with Tween-80) 94 % of control; (dose: 6.25 mg/kg/injection, schedule: Q01DX009 (ip), vehicle: saline with Tween-80) 90 % of control; (dose: 6.25 mg/kg/injection, schedule: Q04DX003 (ip), vehicle: saline with Tween-80) 106 % of control; (dose: 12.5 mg/kg/injection, schedule: Q01DX009 (ip), vehicle: saline with Tween-80) 97 % of control; (dose: 12.5 mg/kg/injection, schedule: Q04DX003 (ip), vehicle: saline with Tween-80) 94 % of control.
`CC1(C)CC(=O)CC(C)(C#N)C1` (stereo not drawn): the T/C is, setting by setting: (dose: 6.25 mg/kg/injection, schedule: Q01DX009 (ip), vehicle: Klucel (hydroxypropylcellulose) (HPC)) 97 % of control; (dose: 12.5 mg/kg/injection, schedule: Q01DX009 (ip), vehicle: Klucel (hydroxypropylcellulose) (HPC)) 99 % of control; under setting [1], 91 % of control; under setting [2], 93 % of control.
On to `O=c1[nH]nnc2c1cnn2-c1ccccc1`, for which the T/C reads like this: under setting [6], 101 % of control; under setting [7], 97 % of control.
`CN(C)CCOC(=O)c1cccc(CCl)c1`: the T/C by setting is: (dose: 45.0 mg/kg/injection, schedule: Q04DX002 (ip), vehicle: saline) 106 % of control; (dose: 50.0 mg/kg/injection, schedule: Q04DX002 (ip), vehicle: saline) 98 % of control; (dose: 65.0 mg/kg/injection, schedule: Q04DX002 (ip), vehicle: saline) 97 % of control; (dose: 100.0 mg/kg/injection, schedule: Q04DX002 (ip), vehicle: saline) 97 % of control and 102 % of control; (dose: 150.0 mg/kg/injection, schedule: Q04DX002 (ip), vehicle: saline) 91 % of control; (dose: 200.0 mg/kg/injection, schedule: Q04DX002 (ip), vehicle: saline) 94 % of control and 88 % of control. The T/C (dose: 400.0 mg/kg/injection, schedule: Q04DX002 (ip), vehicle: saline) was 106 % of control.
For the compound `COC(=O)CC(Br)CBr` (stereo not drawn), the T/C was 100 % of control under setting [6] and 100 % of control under setting [7].
Take `O=C1c2nc3ccccc3nc2C(=O)N1OS(=O)(=O)c1ccccc1`: the T/C was 92 % of control under setting [8], 105 % of control under setting [9] and 100 % of control under setting [10].
Turning to `COC(=O)c1ccc[n+](Cc2c(Cl)cccc2Cl)c1`, the T/C (dose: 75.0 mg/kg/injection, schedule: Q01DX001 (ip), vehicle: saline) was 95 % of control and the T/C (dose: 150.0 mg/kg/injection, schedule: Q01DX001 (ip), vehicle: saline) is 96 % of control.
Consider `COC1OC2COC(c3ccccc3)OC2C(OS(=O)(=O)c2ccc(C)cc2)C1OC` (stereo not drawn), for which the T/C runs as follows: (dose: 100.0 mg/kg/injection, schedule: Q04DX002 (ip), vehicle: saline with Tween-80) 107 % of control; (dose: 200.0 mg/kg/injection, schedule: Q04DX002 (ip), vehicle: saline with Tween-80) 89 % of control; (dose: 400.0 mg/kg/injection, schedule: Q04DX002 (ip), vehicle: saline with Tween-80) 93 % of control.
On to `CC(C)COC(=O)c1cccc2c1-c1ccccc1C2=O`, for which the T/C was 96 % of control (dose: 100.0 mg/kg/injection, schedule: Q01DX001 (ip), vehicle: other); 87 % of control (dose: 200.0 mg/kg/injection, schedule: Q01DX001 (ip), vehicle: other); 98 % of control (dose: 400.0 mg/kg/injection, schedule: Q01DX001 (ip), vehicle: other).
With `CC(C)(C)C1=CC(C(C)(C)C)CCC1=O` (stereo not drawn), the T/C reads like this: under setting [3], 98 % of control; under setting [4], 102 % of control; under setting [5], 92 % of control.
For the compound `Cc1cc([N+](=O)[O-])cc(C)c1C`, the T/C runs as follows: (dose: 100.0 mg/kg/injection, schedule: Q04DX003 (ip), vehicle: Klucel (hydroxypropylcellulose) (HPC)) 98 % of control; (dose: 200.0 mg/kg/injection, schedule: Q04DX003 (ip), vehicle: Klucel (hydroxypropylcellulose) (HPC)) 102 % of control; (dose: 400.0 mg/kg/injection, schedule: Q04DX003 (ip), vehicle: Klucel (hydroxypropylcellulose) (HPC)) 107 % of control.
Regarding `N#CCCC(C#N)(c1cccnc1)N1CCOCC1` (stereo not drawn), the T/C reads like this: (dose: 6.25 mg/kg/injection, schedule: Q04DX002 (ip), vehicle: saline with Tween-80) 98 % of control; (dose: 12.5 mg/kg/injection, schedule: Q04DX002 (ip), vehicle: saline with Tween-80) 98 % of control; (dose: 25.0 mg/kg/injection, schedule: Q04DX002 (ip), vehicle: saline with Tween-80) 98 % of control.
Consider `Nc1ccccc1/C=C/c1ccncc1`, for which the T/C (dose: 50.0 mg/kg/injection, schedule: Q01DX009 (ip), vehicle: Klucel (hydroxypropylcellulose) (HPC)) is 100 % of control; the T/C under setting [8] is 92 % of control; the T/C under setting [9] was 101 % of control; the T/C under setting [10] was 100 % of control.
As to `O=C(O)CNC(=O)Nc1cccc(Cl)c1`, the T/C is, setting by setting: (dose: 50.0 mg/kg/injection, schedule: Q01DX001 (ip), vehicle: Klucel (hydroxypropylcellulose) (HPC)) 100 % of control; (dose: 100.0 mg/kg/injection, schedule: Q01DX001 (ip), vehicle: Klucel (hydroxypropylcellulose) (HPC)) 105 % of control; (dose: 200.0 mg/kg/injection, schedule: Q01DX001 (ip), vehicle: Klucel (hydroxypropylcellulose) (HPC)) 108 % of control.
`CC1N2CC12c1ccccc1` (stereo not drawn): the T/C is 103 % of control (dose: 10.0 mg/kg/injection, schedule: Q01DX001 (ip), vehicle: saline); 108 % of control (dose: 20.0 mg/kg/injection, schedule: Q01DX001 (ip), vehicle: saline); 103 % of control (dose: 40.0 mg/kg/injection, schedule: Q01DX001 (ip), vehicle: saline).
